Experiments:
[1] = target: T1, soluble guanylate cyclase (Homo sapiens, UniProt Q02153); experiment: Stimulation of guanylate cyclase from blood platelets (RIA); type: biochemical; details: 37° C.
T1 construct: The guanylate cyclase activity in the supernatant after incubation with and without the test substance; endogenous in cells; host or cells: human blood platelets, supernatant of homogenate
T1 sequence (Q02153 1-619): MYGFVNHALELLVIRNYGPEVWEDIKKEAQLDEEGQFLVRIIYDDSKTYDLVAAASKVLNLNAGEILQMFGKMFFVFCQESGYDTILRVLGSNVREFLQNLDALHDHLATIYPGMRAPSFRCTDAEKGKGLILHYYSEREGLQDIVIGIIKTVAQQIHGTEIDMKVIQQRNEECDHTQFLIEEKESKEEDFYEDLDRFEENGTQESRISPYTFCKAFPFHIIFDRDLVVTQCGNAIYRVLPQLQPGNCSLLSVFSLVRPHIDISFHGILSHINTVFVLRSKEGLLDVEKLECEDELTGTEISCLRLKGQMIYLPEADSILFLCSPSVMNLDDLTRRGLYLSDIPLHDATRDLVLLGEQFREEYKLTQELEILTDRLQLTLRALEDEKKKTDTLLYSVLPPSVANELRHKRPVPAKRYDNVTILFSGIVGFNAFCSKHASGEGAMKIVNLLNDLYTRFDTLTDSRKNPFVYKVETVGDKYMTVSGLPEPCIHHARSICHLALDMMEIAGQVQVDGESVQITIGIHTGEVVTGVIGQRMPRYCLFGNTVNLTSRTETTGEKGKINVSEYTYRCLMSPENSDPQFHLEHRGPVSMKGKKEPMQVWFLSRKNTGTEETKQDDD
T1 sequence (Q02108 1-690 partner): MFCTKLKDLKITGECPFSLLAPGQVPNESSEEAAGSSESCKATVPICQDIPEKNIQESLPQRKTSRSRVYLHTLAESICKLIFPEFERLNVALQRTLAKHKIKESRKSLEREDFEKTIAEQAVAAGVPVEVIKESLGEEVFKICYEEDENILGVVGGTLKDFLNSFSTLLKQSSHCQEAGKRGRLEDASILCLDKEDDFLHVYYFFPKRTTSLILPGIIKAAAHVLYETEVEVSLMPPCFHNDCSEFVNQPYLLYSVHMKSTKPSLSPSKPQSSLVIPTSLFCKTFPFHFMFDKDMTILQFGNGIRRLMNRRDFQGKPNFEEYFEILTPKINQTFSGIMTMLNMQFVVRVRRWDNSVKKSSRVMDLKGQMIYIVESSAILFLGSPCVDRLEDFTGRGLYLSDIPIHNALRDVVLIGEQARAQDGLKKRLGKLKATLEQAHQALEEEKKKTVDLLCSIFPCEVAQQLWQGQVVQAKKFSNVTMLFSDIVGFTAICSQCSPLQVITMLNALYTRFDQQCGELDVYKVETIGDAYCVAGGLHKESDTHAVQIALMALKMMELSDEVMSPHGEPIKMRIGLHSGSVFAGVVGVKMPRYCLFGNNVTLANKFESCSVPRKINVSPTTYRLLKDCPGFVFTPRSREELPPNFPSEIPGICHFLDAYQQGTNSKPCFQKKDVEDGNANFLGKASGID

pre-contracted trachea = experiment: Relaxation of pre-contracted isolated trachea; set-up: species or system guinea pig; details: Cavia porcellus; carbamylcholine 0.3 μM, Krebs buffer, 37° C.
Experimental: Compounds according to the invention were tested for their ability to relax a pre-contracted trachea. A contraction of the respiratory passages in combination with a swelling of the mucuos membrane therein presents a vital factor at asthmatic conditions. Relaxation or dilation of the contracted respiratory passages will improve the asthmatic condition.
An isolated trachea from a guinea pig is used. After preparation of a strip which has maintained the circular musculature, the organ is divided into two parts of equal size. The two tracheal strips are suspended in their respective organ bath and connected to a transducer recording the contraction and relaxation of the organ by means of a recorder. The two tracheal strips are continuously bathed in a Krebs buffer at 37° C., constantly bubbled with carbogen (95% O2 and 5% CO2). After an equilibration time of about 3 hours the organs are tested for their sensitivity (contractility) to carbamylcholin a bolus being added directly to the bath (0.3 μM). If the contraction is satisfactory, the organs are transferred to the Krebs buffer containing the same concentration of carbamylcholine. The organs are now constantly exposed to the carbamylcholine and slowly develop a permanent contraction ("asthma"). The test substances are in bolus form added directly to the organ bath. After maximum effect (relaxation) the substances are removed by washing out and the tracheal strip reverts to its permanent contraction state. […] An EC50 -value (that is the concentration relaxing the organ by 50% relative to the maximum relaxation) is calculated for each test substance by means of a linear regression analysis (log concentration (μM) as a constant ad abscissa and % relaxation as variable ad ordinate). Sodium nitroprusside (NNP) and SIN-1 are used as reference substances.

- Guanylate cyclase activity ([1]; 0.01 μM): 2225 pmole c-GMP/mg prot. × 15 minutes
- Guanylate cyclase activity ([1]; 10 μm (so in the source)): 47298 pmole c-GMP/mg prot. × 15 minutes
- EC50 (pre-contracted trachea): 2700 nM
SMILES: COc1ccc(Cl)cc1-[n+]1noc([NH-])n1 [Example 20]

Reference: patent US5405857A, “3-substituted 1,2,3,4,-oxatriazole-5-imine compounds, a process for the preparation thereof and a pharmaceutical preparation containing said compounds” (A/S GEA Farmaceutisk Fabrik, priority 1991, dated 1995)
